pIC50: −log10 of the molar value. The source made the active and inactive calls. No cut-off for these calls is given here.
Tests used:
A549 [1] = experiment: Cytotoxicity against human A549 cells assessed as inhibition of cell viability incubated for 48 hrs by CCK8 assay; assay type: functional, cell-based; conditions: A549, 48 h
NCI-H1299 = experiment: Cytotoxicity against human NCI-H1299 cells assessed as inhibition of cell viability incubated for 48 hrs by CCK8 assay; assay type: functional, cell-based; conditions: NCI-H1299, 48 h
A549 [2] = experiment: Induction of apoptosis in human A549 cells incubated for 48 hrs by Annexin V-FITC/PI staining based flow cytometry; assay type: functional, cell-based; conditions: dose 5-15 µM
A549 [3] = experiment: Induction of apoptosis in human A549 cells at 15 uM incubated for 48 hrs by Annexin V-FITC/PI staining based flow cytometry relative to control; assay type: functional
[4] = target: Myc proto-oncogene protein (Homo sapiens) (UniProt P01106); experiment: Inhibition of c-Myc in human A549 cells by Western blot analysis; assay type: cell-based; conditions: dose <= 10.0 µM
A549 [5] = experiment: Induction of apoptosis in human A549 cells assessed as necrotic cells at 2.5 uM incubated for 48 hrs by Annexin V-FITC/PI staining based flow cytometry (reference value: 1.41 %); assay type: functional
A549 [6] = experiment: Induction of apoptosis in human A549 cells assessed as late apoptotic cells at 10 uM incubated for 48 hrs by Annexin V-FITC/PI staining based flow cytometry (reference value: 5.79 %); assay type: functional
A549 [7] = experiment: Induction of apoptosis in human A549 cells assessed as necrotic cells at 10 uM incubated for 48 hrs by Annexin V-FITC/PI staining based flow cytometry (reference value: 1.41 %); assay type: functional
[8] = Cytotoxicity against human BEAS-2B cells assessed as cell viability upto 20 uM incubated for 48 hrs by CCK8 assay relative to control; assay type: toxicity, cell-based; conditions: read-out: Activity
A549 [9] = experiment: Induction of apoptosis in human A549 cells assessed as early apoptotic cells at 10 uM incubated for 48 hrs by Annexin V-FITC/PI staining based flow cytometry (reference value: 5.02 %); assay type: functional
A549 [10] = experiment: Induction of apoptosis in human A549 cells assessed as early apoptotic cells at 2.5 uM incubated for 48 hrs by Annexin V-FITC/PI staining based flow cytometry (reference value: 5.02 %); assay type: functional
A549 [11] = experiment: Induction of apoptosis in human A549 cells assessed as late apoptotic cells at 5 uM incubated for 48 hrs by Annexin V-FITC/PI staining based flow cytometry (reference value: 5.79 %); assay type: functional
A549 [12] = experiment: Induction of apoptosis in human A549 cells assessed as activation of caspase-3 cleavage at 2.5 to 10 uM incubated for 48 hrs by Western blot analysis; assay type: functional, cell-based; conditions: dose 2.5-10 µM
A549 [13] = experiment: Induction of apoptosis in human A549 cells assessed as early apoptotic cells at 5 uM incubated for 48 hrs by Annexin V-FITC/PI staining based flow cytometry (reference value: 5.02 %); assay type: functional
A549 [14] = experiment: Induction of apoptosis in human A549 cells at 5 uM incubated for 48 hrs by Annexin V-FITC/PI staining based flow cytometry relative to control; assay type: functional
A549 [15] = experiment: Induction of apoptosis in human A549 cells assessed as activation of caspase-9 cleavage at 2.5 to 10 uM incubated for 48 hrs by Western blot analysis; assay type: functional, cell-based; conditions: dose 2.5-10 µM
[16] = target: Myc proto-oncogene protein (Homo sapiens) (UniProt P01106); experiment: Inhibition of c-Myc in human A549 cells assessed as decrease in half life at 10 uM pretreated for 12 hrs followed by CHX treatment for 1 to 2 hrs by Western blot analysis; assay type: cell-based; conditions: time 13-14 hrs
A549 [17] = experiment: Induction of apoptosis in human A549 cells assessed as increase in BAX level at 2.5 to 10 uM incubated for 48 hrs by Western blot analysis; assay type: functional, cell-based; conditions: dose 2.5-10 µM
A549 [18] = experiment: Induction of apoptosis in human A549 cells assessed as decrease in Bcl-2 level at 2.5 to 10 uM incubated for 48 hrs by Western blot analysis; assay type: functional, cell-based; conditions: dose 2.5-10 µM
A549 [19] = experiment: Induction of apoptosis in human A549 cells assessed as necrotic cells at 5 uM incubated for 48 hrs by Annexin V-FITC/PI staining based flow cytometry (reference value: 1.41 %); assay type: functional
A549 [20] = experiment: Induction of apoptosis in human A549 cells assessed as increase in BAD level at 2.5 to 10 uM incubated for 48 hrs by Western blot analysis; assay type: functional, cell-based; conditions: dose 2.5-10 µM
[21] = target: Myc proto-oncogene protein (Homo sapiens) (UniProt P01106); experiment: Inhibition of c-Myc in human A549 cells at 10 uM incubated for 24 hrs in presence of MG132 by Western blot analysis; assay type: cell-based
A549 [22] = experiment: Induction of apoptosis in human A549 cells assessed as late apoptotic cells at 2.5 uM incubated for 48 hrs by Annexin V-FITC/PI staining based flow cytometry (reference value: 5.79 %); assay type: functional
A549 [23] = experiment: Induction of apoptosis in human A549 cells assessed as viable cells at 10 uM incubated for 48 hrs by Annexin V-FITC/PI staining based flow cytometry (reference value: 87.8 %); assay type: functional; conditions: read-out: Activity
A549 [24] = experiment: Effect on c-Myc mRNA expression in human A549 cells at 10 uM by Q-PCR analysis; assay type: functional, cell-based
[25] = target: Myc proto-oncogene protein (Homo sapiens) (UniProt P01106); experiment: Inhibition of c-Myc in human NCI-H1299 cells by Western blot analysis; assay type: cell-based; conditions: dose <= 10.0 µM
A549 [26] = experiment: Induction of apoptosis in human A549 cells assessed as viable cells at 5 uM incubated for 48 hrs by Annexin V-FITC/PI staining based flow cytometry (reference value: 87.8 %); assay type: functional; conditions: read-out: Activity
A549 [27] = experiment: Induction of apoptosis in human A549 cells assessed as viable cells at 2.5 uM incubated for 48 hrs by Annexin V-FITC/PI staining based flow cytometry (reference value: 87.8 %); assay type: functional; conditions: read-out: Activity

Chain of Myc proto-oncogene protein (Homo sapiens) (P01106 whole entry): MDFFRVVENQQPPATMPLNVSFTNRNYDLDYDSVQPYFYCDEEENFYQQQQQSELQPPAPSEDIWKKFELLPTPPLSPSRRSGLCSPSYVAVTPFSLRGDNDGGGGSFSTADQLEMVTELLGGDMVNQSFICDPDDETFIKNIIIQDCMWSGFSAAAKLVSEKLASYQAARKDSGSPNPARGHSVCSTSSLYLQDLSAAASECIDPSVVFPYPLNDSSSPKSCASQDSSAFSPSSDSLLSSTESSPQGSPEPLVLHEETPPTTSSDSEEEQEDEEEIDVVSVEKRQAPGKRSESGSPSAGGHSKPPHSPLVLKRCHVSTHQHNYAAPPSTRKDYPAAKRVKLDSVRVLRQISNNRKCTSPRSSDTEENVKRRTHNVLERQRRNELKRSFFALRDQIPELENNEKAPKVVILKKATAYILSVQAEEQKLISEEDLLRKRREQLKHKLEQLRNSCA

c1ccc2c(c1)nc(-c1cc(-c3ccc(N4CCCCC4)cc3)on1)n2CCCN1CCOCC1
pIC50 (A549 [1]): 4.86 | pIC50 (NCI-H1299): 4.62

c1ccc2c(c1)nc(-c1cc(-c3ccc(N4CCOCC4)cc3)on1)n2CCCN1CCCCC1
pIC50 (A549 [1]): 5.20 | pIC50 (NCI-H1299): 4.69

c1ccc2c(c1)nc(-c1cc(-c3ccc(N4CCCCC4)cc3)on1)n2CCN1CCCCCC1
pIC50 (A549 [1]): 5.03 | pIC50 (NCI-H1299): 4.78

CN(C)c1ccc(-c2cc(-c3nc4ccccc4n3CCN3CCCCC3)no2)cc1
pIC50 (A549 [1]): 5.04 | pIC50 (NCI-H1299): 4.88

Cc1ccc(C(=O)n2c(-c3cc(-c4ccc(N5CCOCC5)cc4)on3)nc3ccccc32)cc1
pIC50 (A549 [1]): 4.72 | pIC50 (NCI-H1299): 4.65

O=C(c1ccccc1)n1c(-c2cc(-c3ccc(N4CCOCC4)cc3)on2)nc2ccccc21
pIC50 (A549 [1]): 4.68 | pIC50 (NCI-H1299): 4.71

CCN(CC)CCCn1c(-c2cc(-c3ccc(N4CCOCC4)cc3)on2)nc2ccccc21
pIC50 (A549 [1]): 5.07 | pIC50 (NCI-H1299): 4.66

Fc1ccc(-c2cc(-c3nc4ccccc4n3Cc3ccccc3)no2)cc1
pIC50 (A549 [1]): < 4.40 | pIC50 (NCI-H1299): < 4.40

Cc1cc(C)cc(OCCn2c(C3CC(=O)N(c4cccc(C)c4)C3)nc3ccccc32)c1 (stereo not given)
pIC50 (A549 [1]): 4.82 | pIC50 (NCI-H1299): 4.73

c1ccc2c(c1)nc(-c1cc(-c3ccc(N4CCCC4)cc3)on1)n2CCN1CCOCC1
pIC50 (A549 [1]): 4.70 | pIC50 (NCI-H1299): 4.44

c1ccc2c(c1)nc(-c1cc(-c3ccc(N4CCCCCC4)cc3)on1)n2CCN1CCCCC1
pIC50 (A549 [1]): 4.96 | pIC50 (NCI-H1299): 4.66

CCN(CC)CCCn1c(-c2cc(-c3ccc(N(C)C)cc3)on2)nc2ccccc21
pIC50 (A549 [1]): 5.06 | pIC50 (NCI-H1299): 4.71

c1ccc2c(c1)nc(-c1cc(-c3ccc(N4CCOCC4)cc3)on1)n2CCN1CCCC1
Activity (A549 [2]): Dose-dependent-effect | Activity (A549 [3]): 53% | inhibition [4]: Dose-dependent-effect | Activity (A549 [5]): 5.52% | Activity (A549 [6]): 45.2% | Activity (A549 [7]): 3.66% | viability at 48 h, 20 µM [8]: > 90% | pIC50 (A549 [1]): 5.20 | Activity (A549 [9]): 7.88% | Activity (A549 [10]): 4.67% | Activity (A549 [11]): 19.5% | Activity (A549 [12]): Active | Activity (A549 [13]): 11.7% | Activity (A549 [14]): 22.3% | Activity (A549 [15]): Active | inhibition [16]: Active | Activity (A549 [17]): Active | Activity (A549 [18]): Active | Activity (A549 [19]): 2.44% | Activity (A549 [20]): Active | inhibition [21]: inactive | Activity (A549 [22]): 17.7% | viability at 10 µM (A549 [23]): 43.2% | pIC50 (NCI-H1299): 4.94 | Activity (A549 [24]): inactive | inhibition [25]: Dose-dependent-effect | viability at 5 µM (A549 [26]): 66.3% | viability at 2.5 µM (A549 [27]): 72.1%

c1ccc2c(c1)nc(-c1cc(-c3ccc(N4CCCC4)cc3)on1)n2CCN1CCCCCC1
pIC50 (A549 [1]): 4.67 | pIC50 (NCI-H1299): 4.44

CN(C)CCCn1c(-c2cc(-c3ccc(N4CCCCC4)cc3)on2)nc2ccccc21
pIC50 (A549 [1]): 5.22 | pIC50 (NCI-H1299): 4.81

c1ccc2c(c1)nc(-c1cc(-c3ccc(N4CCCCCC4)cc3)on1)n2CCN1CCCCCC1
pIC50 (A549 [1]): 4.83 | pIC50 (NCI-H1299): 4.58

c1ccc2c(c1)nc(-c1cc(-c3ccc(N4CCCC4)cc3)on1)n2CCCN1CCOCC1
pIC50 (A549 [1]): 4.53 | pIC50 (NCI-H1299): 4.44

CN(C)c1ccc(-c2cc(-c3nc4ccccc4n3CCN3CCCC3)no2)cc1
pIC50 (A549 [1]): 4.97 | pIC50 (NCI-H1299): 4.85

CN(C)c1ccc(-c2cc(-c3nc4ccccc4n3CCN3CCCCCC3)no2)cc1
pIC50 (A549 [1]): 4.94 | pIC50 (NCI-H1299): 4.74

CN(C)c1ccc(-c2cc(-c3nc4ccccc4n3CCN3CCOCC3)no2)cc1
pIC50 (A549 [1]): 4.90 | pIC50 (NCI-H1299): 4.75

c1ccc2c(c1)nc(-c1cc(-c3ccc(N4CCCCC4)cc3)on1)n2CCCN1CCCCC1
pIC50 (A549 [1]): 4.87 | pIC50 (NCI-H1299): 4.54

CN(C)CCn1c(-c2cc(-c3ccc(N4CCOCC4)cc3)on2)nc2ccccc21
pIC50 (A549 [1]): 5.05 | pIC50 (NCI-H1299): 4.72

Source: ChEMBL document CHEMBL6087414, “Discovery of 4-(4-(3-(1-(2-(piperidin-1-yl)ethyl)-1H-benzo[d]imidazole-2-yl)isoxazol-5-yl)phenyl)morpholine as a novel c-Myc inhibitor against lung cancer in vitro and in vivo” (Eur J Med Chem, 2025)
